Results reported in US12486269B2 (Aconcagua Bio, Inc., priority 2024, dated 2025).

Legend:
[1] = molecular target: T1, COS-7/AMY3 (human calcitonin receptor (CTR) and RAMP3) (Homo sapiens, UniProt O60896+P30988); experiment: Amylin Receptor cAMP Assay II; assay type: cell-based; conditions: values marked **: Amylin Receptor cAMP Assay II; COS-7/AMY3 cells, cAMP dynamic 2 kit, 30 min; read-out: Amylin Receptor cAMP Stimulation Activity: EC50
T1 construct: expressed in transfected cells; host or cells: COS-7
Text: AMYRs are heterodimers of the class B calcitonin (CT) G-protein-coupled receptor (CTR) and receptor activity-modifying proteins (RAMPs). All three RAMPs can interact with the CTR and form AMY1, AMY2, AMY3 with RAMP1, RAMP2 and RAMP3, respectively. Like other class B1 GPCRs, the CT receptor family is canonically coupled to Gs-mediated cAMP production, and measurement of cAMP accumulation has been the primary assay used to determine peptide selectivity and potency.
(§1) To optimize functional activity directed toward Gαs coupling, COS-7 cells were stably transfected with human calcitonin receptor (CTR) and RAMP3, simultaneously. 100×concentration of compound working solutions were prepared with 4-fold serial dilution in 384-well Echo LDV plate (Labcyte, Cat #LP-0200-BC). 200 nL/well 100×concentration of compound working solutions were moved to 384-well white microplate (Perkin Elmer, Cat #6007680) using Labcyte ECHO550. 1×10^5 cells/mL COS-7/AMY3 cell suspensions prepared with assay buffer [HBSS containing 20 mM HEPES (Gibco, Cat #15630-080), 0.5 mM IBMX (Sigma, Cat #15879) and 0.1% Casein (Sigma, Cat #C4765)], 20 μL cell suspensions were added to each well of previous generated assay plate which already contains 200 nL compound at 100×concentration using ThermoFisher Multidrop Combi (2000 cells/well). Seal the plate and incubate at 37° C. with 5% CO2 for 30 min.
(§2) After incubation, the cAMP assay signal was generated using cAMP dynamic 2 kit (Revvity, Cat #62AM4PEC). 10 μL cAMP-d2 working solution was added to each well, followed by 10 μL Anti-cAMP antibody-cryptate working solution which was added to each well using CERTUS FLEX LIQUID […]. The samples were then incubated at room temperature for 1 hour protected from light. the fluorescence was read at 665 and 615 nm with Reader PerkinElmer EnVision 2105. % Activity=100−(mean RLU of test sample−mean RLU of positive control)/(mean RLU of vehicle control−mean RLU of positive control)×100 Calcitonin Receptor (CTR) cAMP Assay

[2] = molecular target: T2, human calcitonin receptor (CTR) (Homo sapiens, UniProt P30988); experiment: Calcitonin Receptor (CTR) cAMP Assay; assay type: cell-based; conditions: COS7-human CTR Clone #2 stable cell line, cAMP dynamic 2 kit, 30 min; read-out: Calcitonin Receptor cAMP Stimulation Activity: EC50
T2 construct: expressed in transfected cells; host or cells: COS-7 (COS7-human CTR Clone #2)
T2 sequence (P30988 25-474): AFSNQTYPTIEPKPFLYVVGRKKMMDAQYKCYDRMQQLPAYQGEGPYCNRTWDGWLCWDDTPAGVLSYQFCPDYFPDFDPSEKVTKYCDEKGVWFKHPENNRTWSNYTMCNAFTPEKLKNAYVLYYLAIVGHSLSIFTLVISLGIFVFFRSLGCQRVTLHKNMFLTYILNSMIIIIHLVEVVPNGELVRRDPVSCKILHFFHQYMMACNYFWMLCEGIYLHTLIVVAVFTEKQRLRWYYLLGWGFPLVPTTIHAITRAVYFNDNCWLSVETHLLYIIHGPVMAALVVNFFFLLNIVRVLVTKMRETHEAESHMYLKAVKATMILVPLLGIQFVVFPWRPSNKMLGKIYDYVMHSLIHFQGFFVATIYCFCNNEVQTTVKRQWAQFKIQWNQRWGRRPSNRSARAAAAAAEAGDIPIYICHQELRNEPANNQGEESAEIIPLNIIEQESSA
Protocol: as §2
The calcitonin receptor (CTR) belongs to the subfamily of GPCRs known as the secretin or ‘B’ family of GPCRs. Like other class B1 GPCRs, the CT receptor family is canonically coupled to Gs-mediated cAMP production, and measurement of cAMP accumulation has been the primary assay used to determine peptide selectivity and potency.
as §1, with “to create COS7-human CTR Clone #2 stable cell line.” for “and RAMP3, simultaneously.”, “COS7-human CTR Clone #2” for “COS-7/AMY3”
as §2, with “control)×100” for “control)×100 Calcitonin Receptor (CTR) cAMP Assay”

T1 sequence (O60896 24-148, one chain of several): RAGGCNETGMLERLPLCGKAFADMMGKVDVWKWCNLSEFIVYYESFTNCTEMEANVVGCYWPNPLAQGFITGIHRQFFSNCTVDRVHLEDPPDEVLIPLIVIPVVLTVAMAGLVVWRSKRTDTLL

Compound	EC50 [1]	EC50 [2]
COc1c(F)ccc2c1CC[C@H]2Nc1nccc2cc(-c3c4c(nc(CCc5ccc(F)cc5)c3-c3n[nH]c(=O)o3)[C@@H]3CCCN3C4=O)sc12 [Compound 167, 5-((S)-4-(7-(((R)-5-fluoro-4-methoxy-2,3-dihydro-1H-inden-1-yl)amino)thieno[2,3-c]pyridin-2-yl)-2-(4-fluorophenethyl)-5-oxo-7,8,9,9a-tetrahydro-5H-pyrido[2,3-a]pyrrolizin-3-yl)-1,3,4-oxadiazol-2(3H)-one]	4.38 nM	0.13 nM
N#Cc1ccc(Cn2ccc3cc(-c4c5c(nc(CCC67CCC(CC6)OC7)c4-c4n[nH]c(=O)o4)[C@@H]4CCCN4C5=O)cnc32)c(F)c1 [Compound 231, (S)-4-((5-(2-(2-(2-oxabicyclo[2.2.2]octan-4-yl)ethyl)-5-oxo-3-(5-oxo-4,5-dihydro-1,3,4-oxadiazol-2-yl)-7,8,9,9a-tetrahydro-5H-pyrido[2,3-a]pyrrolizin-4-yl)-1H-pyrrolo[2,3-b]pyridin-1-yl)methyl)-3-fluorobenzonitrile]	15300 nM	171 nM
O=C1c2c(nc(CCc3ccc(F)cc3)c(-c3n[nH]c(=O)o3)c2-c2cc3ccnc(N[C@@H]4CCc5ccccc54)c3s2)[C@@H]2CCCN12 [Compound 226, 5-((S)-4-(7-(((R)-2,3-dihydro-1H-inden-1-yl)amino)thieno[2,3-c]pyridin-2-yl)-2-(4-fluorophenethyl)-5-oxo-7,8,9,9a-tetrahydro-5H-pyrido[2,3-a]pyrrolizin-3-yl)-1,3,4-oxadiazol-2(3H)-one]	14.2 nM	1.08 nM
COc1c(F)ccc2c1C[C@@H](F)[C@H]2Nc1nccc2cc(-c3c4c(nc(CCc5ccc(F)cc5)c3-c3n[nH]c(=O)o3)[C@@H]3CCCN3C4=O)sc12 [Compound 260, 5-((S)-4-(7-(((1S,2R)-2,5-difluoro-4-methoxy-2,3-dihydro-1H-inden-1-yl)amino)thieno[2,3-c]pyridin-2-yl)-2-(4-fluorophenethyl)-5-oxo-7,8,9,9a-tetrahydro-5H-pyrido[2,3-a]pyrrolizin-3-yl)-1,3,4-oxadiazol-2(3H)-one]	1.24 nM	0.0529 nM
N#Cc1ccc(Cn2ccc3cc(-c4c(-c5n[nH]c(=O)o5)c(CCc5ccc(F)cc5)nc5c4c(=O)n4n5CCC4)ccc32)cc1F [Compound 158, 2-fluoro-4-((5-(2-(4-fluorophenethyl)-5-oxo-3-(5-oxo-4,5-dihydro-1,3,4-oxadiazol-2-yl)-8,9-dihydro-5H,7H-pyrazolo[1′,2′:1,2]pyrazolo[3,4-b]pyridin-4-yl)-1H-indol-1-yl)methyl)benzonitrile]	12.8 nM	1.19 nM
O=C1c2c(nc(CCc3ccc(F)cc3)c(-c3n[nH]c(=O)o3)c2-c2cc3ccnc(Cc4coc5ccccc45)c3s2)[C@@H]2CCCN12 [Compound 248, (S)-5-(4-(7-(benzofuran-3-ylmethyl)thieno[2,3-c]pyridin-2-yl)-2-(4-fluorophenethyl)-5-oxo-7,8,9,9a-tetrahydro-5H-pyrido[2,3-a]pyrrolizin-3-yl)-1,3,4-oxadiazol-2(3H)-one]	4200 nM	102 nM

More lines, now with the values ahead:

EC50 [1]	EC50 [2]	Compound
0.608 nM	0.0484 nM	COc1c(F)ccc2c1CC[C@H]2Nc1nc(C)cc2cc(-c3c4c(nc(CCc5ccc(F)cc5)c3-c3n[nH]c(=O)o3)[C@@H]3CCCN3C4=O)sc12 [Compound 187, 5-((S)-4-(7-(((R)-5-fluoro-4-methoxy-2,3-dihydro-1H-inden-1-yl)amino)-5-methylthieno[2,3-c]pyridin-2-yl)-2-(4-fluorophenethyl)-5-oxo-7,8,9,9a-tetrahydro-5H-pyrido[2,3-a]pyrrolizin-3-yl)-1,3,4-oxadiazol-2(3H)-one]
288 nM	18.7 nM	O=C1c2c(nc(CCc3ccc(F)cc3)c(-c3noc(=O)[nH]3)c2-c2cc3ccnc(NCc4ccc5c(c4)CCC5)c3s2)[C@@H]2CCCN12 [Compound 148]
90.7 nM	4.42 nM	O=C1c2c(nc(CCc3ccc(F)cc3)c(-c3noc(=O)[nH]3)c2-c2cc3ccnc(OCc4ccc(F)c(F)c4)c3s2)[C@@H]2CCCN12 [Compound 133, (S)-3-(4-(7-((3,4-difluorobenzyl)oxy)thieno[2,3-c]pyridin-2-yl)-2-(4-fluorophenethyl)-5-oxo-7,8,9,9a-tetrahydro-5H-pyrido[2,3-a]pyrrolizin-3-yl)-1,2,4-oxadiazol-5(4H)-one]
48.1 nM	1.83 nM	COc1cccc2c1CC[C@H]2Nc1nccc2cc(-c3c4c(nc(CCc5ccc(F)cc5)c3-c3n[nH]c(=O)o3)[C@H]3COCCN3C4=O)sc12 [Compound 234, (S)-2-(4-fluorophenethyl)-4-(7-(((R)-4-methoxy-2,3-dihydro-1H-inden-1-yl)amino)thieno[2,3-c]pyridin-2-yl)-3-(5-oxo-4,5-dihydro-1,3,4-oxadiazol-2-yl)-7,8,10,10a-tetrahydro-5H-pyrido[2′,3′:3,4]pyrrolo[2,1-c][1,4]oxazin-5-one]
0.318 nM	0.0127 nM	Cc1cc2cc(-c3c4c(nc(CCc5ccc(F)cc5)c3-c3n[nH]c(=O)o3)C35CC(CN3C4=O)C5)sc2c(N[C@@H]2CCc3cc(F)c(F)cc32)n1 [Compound 255, (R)-5-(4-(7-((5,6-difluoro-2,3-dihydro-1H-inden-1-yl)amino)-5-methylthieno[2,3-c]pyridin-2-yl)-2-(4-fluorophenethyl)-5-oxo-8,9-dihydro-5H,7H-8,9a-methanopyrido[2,3-a]pyrrolizin-3-yl)-1,3,4-oxadiazol-2(3H)-one]
33.1 nM	1.19 nM	O=C1c2c(nc(CCc3ccc(F)cc3)c(-c3n[nH]c(=O)o3)c2-c2cc3ccnc(N[C@@H]4CCOc5ccccc54)c3s2)[C@@H]2CCCN12 [Compound 170]
26.8 nM	0.741 nM	COc1cccc2c1CC[C@H]2Nc1nccc2cc(-c3c(-c4n[nH]c(=O)o4)c(CCc4ccc(F)cc4)nc4c3S(=O)(=O)N3CCC[C@@H]43)sc12 [Compound 175, 5-((S)-2-(4-fluorophenethyl)-4-(7-(((R)-4-methoxy-2,3-dihydro-1H-inden-1-yl)amino)thieno[2,3-c]pyridin-2-yl)-5,5-dioxido-7,8,9,9a-tetrahydropyrrolo[1′,2′:2,3]isothiazolo[4,5-b]pyridin-3-yl)-1,3,4-oxadiazol-2(3H)-one]
